Experimental data as given in patent publication US8959984B2, “Proteome-wide quantification of small molecule binding to cellular target proteins” (priority 2007, dated 2015).
Read-outs that look alike come from different tables or passages of the source.

Tests used:
MAP3K2 = target: T1, MAP3K2 (Homo sapiens, UniProt Q9Y2U5); test: binding to immobilized V16742 (IVA1/IVA2, HeLa lysate, MS)
T1 construct: endogenous in cells; host or cells: HeLa S3
T1 sequence (Q9Y2U5 1-619): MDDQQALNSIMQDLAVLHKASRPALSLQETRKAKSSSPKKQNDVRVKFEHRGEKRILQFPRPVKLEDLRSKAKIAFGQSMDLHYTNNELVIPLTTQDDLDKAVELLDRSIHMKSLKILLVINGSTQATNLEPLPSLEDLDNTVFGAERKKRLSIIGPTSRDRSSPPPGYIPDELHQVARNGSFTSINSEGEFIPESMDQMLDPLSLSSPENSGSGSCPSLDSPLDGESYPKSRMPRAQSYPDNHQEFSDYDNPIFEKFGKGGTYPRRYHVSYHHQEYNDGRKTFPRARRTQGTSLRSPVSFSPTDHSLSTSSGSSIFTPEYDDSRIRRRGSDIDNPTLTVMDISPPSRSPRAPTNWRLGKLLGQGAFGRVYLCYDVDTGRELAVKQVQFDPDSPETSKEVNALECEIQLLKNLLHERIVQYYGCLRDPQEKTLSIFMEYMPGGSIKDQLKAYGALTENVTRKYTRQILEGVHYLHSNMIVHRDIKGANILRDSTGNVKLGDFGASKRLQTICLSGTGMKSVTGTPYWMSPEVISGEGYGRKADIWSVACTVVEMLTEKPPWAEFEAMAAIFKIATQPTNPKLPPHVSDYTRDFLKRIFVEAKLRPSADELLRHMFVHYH

BUB1 = target: T2, BUB1 (Homo sapiens, UniProt O43683); test: as above
T2 construct: endogenous in cells; host or cells: HeLa S3
T2 sequence (O43683 whole entry): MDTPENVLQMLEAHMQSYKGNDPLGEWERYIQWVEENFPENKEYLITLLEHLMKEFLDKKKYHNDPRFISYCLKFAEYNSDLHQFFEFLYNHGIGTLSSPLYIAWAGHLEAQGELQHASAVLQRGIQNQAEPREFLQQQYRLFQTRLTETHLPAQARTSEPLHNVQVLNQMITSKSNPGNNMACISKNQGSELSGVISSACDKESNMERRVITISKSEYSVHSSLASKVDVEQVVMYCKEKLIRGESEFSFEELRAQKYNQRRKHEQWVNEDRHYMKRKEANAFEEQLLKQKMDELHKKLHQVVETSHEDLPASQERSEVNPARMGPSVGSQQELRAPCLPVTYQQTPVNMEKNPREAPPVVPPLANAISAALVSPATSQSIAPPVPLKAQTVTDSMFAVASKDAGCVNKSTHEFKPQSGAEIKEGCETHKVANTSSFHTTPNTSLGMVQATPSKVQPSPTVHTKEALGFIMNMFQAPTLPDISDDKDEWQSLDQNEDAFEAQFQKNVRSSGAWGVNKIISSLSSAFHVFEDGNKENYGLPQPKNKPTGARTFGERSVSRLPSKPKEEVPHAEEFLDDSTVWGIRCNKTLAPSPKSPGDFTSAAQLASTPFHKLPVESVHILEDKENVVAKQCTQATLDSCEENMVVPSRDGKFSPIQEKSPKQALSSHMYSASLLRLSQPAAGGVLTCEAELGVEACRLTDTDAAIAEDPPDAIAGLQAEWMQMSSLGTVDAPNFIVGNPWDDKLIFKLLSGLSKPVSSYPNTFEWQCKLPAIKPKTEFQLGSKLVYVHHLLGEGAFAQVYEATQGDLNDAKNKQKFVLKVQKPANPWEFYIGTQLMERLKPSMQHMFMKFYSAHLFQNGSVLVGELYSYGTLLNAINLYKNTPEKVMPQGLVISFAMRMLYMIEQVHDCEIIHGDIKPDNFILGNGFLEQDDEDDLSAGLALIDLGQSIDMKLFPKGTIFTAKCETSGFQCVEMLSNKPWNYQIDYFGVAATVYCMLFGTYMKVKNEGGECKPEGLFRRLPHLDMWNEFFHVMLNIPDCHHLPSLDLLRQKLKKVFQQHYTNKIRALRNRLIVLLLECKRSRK

Sepiapterin reductase = Sepiapterin reductase (Homo sapiens, UniProt P35270); test: as above
Sequence of Sepiapterin reductase (P35270 whole entry): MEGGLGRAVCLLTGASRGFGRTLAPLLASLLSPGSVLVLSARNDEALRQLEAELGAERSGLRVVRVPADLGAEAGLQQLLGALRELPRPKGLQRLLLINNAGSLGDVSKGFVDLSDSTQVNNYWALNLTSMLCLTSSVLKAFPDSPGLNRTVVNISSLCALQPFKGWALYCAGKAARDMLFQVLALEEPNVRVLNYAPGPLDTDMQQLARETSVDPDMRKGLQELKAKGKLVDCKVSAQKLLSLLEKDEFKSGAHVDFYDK
Procedure: Using the three populations of SILAC-labelled cells and the three different inhibitor resins, two parallel experiments termed as IVA1 (In Vitro Association, Setting 1) and IVA2 (In Vitro Association, Setting 2) were performed. […] In IVA2, SILAC encoded HeLa cells lysates were subjected to two parallel rounds of consecutive affinity purification at the highest ligand density where the supernatant left behind after the first IVA was used for the second round of IVA. An additional incubation of Hela cell lysate with control beads devoid of immobilized inhibitor was also performed to distinguish background binders.
A common IPI identifier template was assigned to peptides based on the MASCOT html-output file for the IVA2 setting in first experiment. The proteins hits identified based on unique peptides were filtered for mass error and MASCOT score. Eventually, the hits identified in both first and second IVA2 experiments were quantified for IVA2 setting of first experiment by MSQuant. […] A next round of sorting was done to filter out protein hits that are less than 50% enriched in the IVA second round compared to IVA first round. This is because at enrichment below 50%, there could be significant errors in deducing kd values for the corresponding targets. […] The same set of targets was also quantified in IVA2 and IVA1 settings of an independent second experiment.

ERCC2 (IPI00029728) = test: binding to VI16742 beads (HeLa lysate, SILAC MS); design: species or system human
From the text: (§1) In an alternative implementation of the chemical proteomic approach according to the invention, the broadly-selective pyrido[2,3-d]pyrimidine-based kinase inhibitor VI16742 has been used for affinity capture (FIG. 10a). […] As shown by gene ontology analysis, the corresponding molecular functions were highly over-represented in proteins specifically retained by the inhibitor resin (FIG. 10b).

WDR68 (IPI00006754) = test: binding to VI16742 beads (HeLa lysate, SILAC MS); design: species or system human
From the text: as §1

LIMS1 (IPI00788612) = test: binding to VI16742 beads (HeLa lysate, SILAC MS); design: species or system human
From the text: as §1

PARVA (IPI00018963) = test: binding to VI16742 beads (HeLa lysate, SILAC MS); design: species or system human
From the text: as §1

RSU1 (IPI00847168) = test: binding to VI16742 beads (HeLa lysate, SILAC MS); design: species or system human
From the text: as §1

CCNK (IPI00783214) = test: binding to VI16742 beads (HeLa lysate, SILAC MS); design: species or system human
From the text: as §1

CCNH (IPI00021305) = test: binding to VI16742 beads (HeLa lysate, SILAC MS); design: species or system human
From the text: as §1

CK1a = CK1a (Homo sapiens, UniProt P48729); test: binding to immobilized V16742 (IVA1/IVA2, HeLa lysate, MS)
Sequence of CK1a (P48729 whole entry): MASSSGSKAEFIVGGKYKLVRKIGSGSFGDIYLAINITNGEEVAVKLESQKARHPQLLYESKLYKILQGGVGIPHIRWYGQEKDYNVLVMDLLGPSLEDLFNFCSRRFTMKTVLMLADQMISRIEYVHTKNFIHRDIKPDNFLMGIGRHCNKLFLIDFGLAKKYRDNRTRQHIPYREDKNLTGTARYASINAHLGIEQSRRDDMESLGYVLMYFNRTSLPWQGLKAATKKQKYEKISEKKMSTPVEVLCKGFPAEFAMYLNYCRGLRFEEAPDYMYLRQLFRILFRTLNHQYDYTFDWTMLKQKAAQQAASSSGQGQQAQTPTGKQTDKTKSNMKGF

EphB4 = EphB4 (Homo sapiens, UniProt P54760); test: as above
Sequence of EphB4 (P54760 16-987): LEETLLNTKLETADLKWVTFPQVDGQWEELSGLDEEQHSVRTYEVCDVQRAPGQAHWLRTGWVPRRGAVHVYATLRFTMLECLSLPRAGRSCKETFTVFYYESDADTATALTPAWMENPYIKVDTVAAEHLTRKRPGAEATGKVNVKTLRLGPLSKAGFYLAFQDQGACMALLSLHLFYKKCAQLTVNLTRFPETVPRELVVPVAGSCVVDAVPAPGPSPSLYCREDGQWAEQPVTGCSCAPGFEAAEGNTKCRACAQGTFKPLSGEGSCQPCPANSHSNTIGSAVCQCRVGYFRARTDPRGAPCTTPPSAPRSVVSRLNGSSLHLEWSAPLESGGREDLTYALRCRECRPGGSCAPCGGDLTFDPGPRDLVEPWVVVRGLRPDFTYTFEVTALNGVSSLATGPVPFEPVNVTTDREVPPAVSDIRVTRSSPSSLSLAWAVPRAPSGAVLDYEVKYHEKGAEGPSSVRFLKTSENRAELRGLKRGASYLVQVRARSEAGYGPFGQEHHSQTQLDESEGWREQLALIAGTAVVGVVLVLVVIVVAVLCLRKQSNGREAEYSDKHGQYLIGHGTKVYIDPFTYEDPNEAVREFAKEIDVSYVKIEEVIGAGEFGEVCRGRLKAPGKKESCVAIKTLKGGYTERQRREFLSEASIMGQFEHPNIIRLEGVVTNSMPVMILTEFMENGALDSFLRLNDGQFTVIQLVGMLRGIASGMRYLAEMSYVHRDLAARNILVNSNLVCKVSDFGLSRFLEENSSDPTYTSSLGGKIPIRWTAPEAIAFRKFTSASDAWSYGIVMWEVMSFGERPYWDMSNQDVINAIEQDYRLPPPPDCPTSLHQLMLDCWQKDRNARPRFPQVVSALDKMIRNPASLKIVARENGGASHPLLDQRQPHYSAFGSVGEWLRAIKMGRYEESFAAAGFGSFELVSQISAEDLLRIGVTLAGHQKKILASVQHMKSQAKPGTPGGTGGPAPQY

SNRPG = SNRPG (Homo sapiens, UniProt P62308)
Sequence of SNRPG (P62306 whole entry): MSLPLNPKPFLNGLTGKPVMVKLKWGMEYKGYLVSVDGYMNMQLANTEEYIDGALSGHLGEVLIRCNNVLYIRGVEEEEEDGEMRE
Sequence of SNRPG (P62304 whole entry, further chain): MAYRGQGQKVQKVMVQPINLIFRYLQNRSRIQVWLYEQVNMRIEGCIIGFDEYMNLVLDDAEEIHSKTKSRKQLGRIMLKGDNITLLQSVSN
Sequence of SNRPG (P62308 whole entry): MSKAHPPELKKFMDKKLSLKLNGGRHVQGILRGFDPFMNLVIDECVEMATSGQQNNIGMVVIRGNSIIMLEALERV

[1] = control beads vs first incubation

CC(C)n1c(=O)ccc2cnc(Nc3ccc(OCCN)cc3)nc21 [V16742]
Percent bound at various 16742 conc (MAP3K2; Experiment 1, 1.87 μM 16742): 4.06% | Percent bound at various 16742 conc (MAP3K2; Experiment 1, 8.74 μM 16742): 14.72% | Percent bound at various 16742 conc (MAP3K2; Experiment 1, 52 μM 16742): 49.07% | Kd (MAP3K2; Experiment 1, read-out: Kd): 53.2 µM | Percent bound at various 16742 conc (MAP3K2; Experiment 2, 1.87 μM 16742): 3.52% | Percent bound at various 16742 conc (MAP3K2; Experiment 2, 8.74 μM 16742): 14.47% | Percent bound at various 16742 conc (MAP3K2; Experiment 2, 52 μM 16742): 48.40% | Kd (MAP3K2; Experiment 2, read-out: Kd): 54.7 µM | Kd (MAP3K2; average of two experiments, read-out: Kd Avg): 53.9 µM | Percent bound at various 16742 conc (BUB1; Experiment 1, 1.87 μM 16742): 2.46% | Percent bound at various 16742 conc (BUB1; Experiment 1, 8.74 μM 16742): 11.95% | Percent bound at various 16742 conc (BUB1; Experiment 1, 52 μM 16742): 50.46% | Percent bound at various 16742 conc (BUB1; Experiment 2, 52 μM 16742): 47.87% | Kd (BUB1; single Kd value, obtained from only one experiment): 53.4 µM | Kd (Sepiapterin reductase): 58.6 µM | Kd (Sepiapterin reductase; Kd Avg, Sepiapterin reductase, average of two experiments): 93 µM | Kd (Sepiapterin reductase; Kd, Sepiapterin reductase, Experiment 2): 127 µM | Kd (Sepiapterin reductase; Kd, Sepiapterin reductase, immobilized V16742): 93 µM | Percent bound at various 16742 conc (Sepiapterin reductase; Sepiapterin reductase, Experiment 1, 1.87 μM 16742): 2.16% | Percent bound at various 16742 conc (Sepiapterin reductase; Sepiapterin reductase, Experiment 1, 8.74 μM 16742): 2.59% | Percent bound at various 16742 conc (Sepiapterin reductase; Sepiapterin reductase, Experiment 1, 52 μM 16742): 51.84% | Percent bound at various 16742 conc (Sepiapterin reductase; Sepiapterin reductase, Experiment 2, 1.87 μM 16742): 1.04% | Percent bound at various 16742 conc (Sepiapterin reductase; Sepiapterin reductase, Experiment 2, 8.74 μM 16742): 1.52% | Percent bound at various 16742 conc (Sepiapterin reductase; Sepiapterin reductase, Experiment 2, 52 μM 16742): 30.43% | rAVERAGE (CTRL/1 INC) (ERCC2 (IPI00029728); [1]): 0.17 | Ki (ERCC2 (IPI00029728); immobilized VI16742): 118 µM | rAVERAGE (2 INC/1 INC) (ERCC2 (IPI00029728); second vs first incubation): 0.69 | r (3 MG/1 MG LYSATE) (WDR68 (IPI00006754); 3 mg vs 1 mg lysate): 2.58 | r (5 h/2.5 h INC. TIME) (WDR68 (IPI00006754); 5 h vs 2.5 h incubation time): 1.31 | rAVERAGE (CTRL/1 INC) (WDR68 (IPI00006754); [1]): 0.17 | Ki (WDR68 (IPI00006754); immobilized VI16742): 249 µM | rAVERAGE (2 INC/1 INC) (WDR68 (IPI00006754); second vs first incubation): 0.83 | rAVERAGE (CTRL/1 INC) (LIMS1 (IPI00788612); [1]): 0.04 | Ki (LIMS1 (IPI00788612); immobilized VI16742): 143 µM | rAVERAGE (2 INC/1 INC) (LIMS1 (IPI00788612); second vs first incubation): 0.73 | rAVERAGE (CTRL/1 INC) (PARVA (IPI00018963); [1]): 0.06 | Ki (PARVA (IPI00018963); immobilized VI16742): 155 µM | rAVERAGE (2 INC/1 INC) (PARVA (IPI00018963); second vs first incubation): 0.75 | r (5 h/2.5 h INC. TIME) (RSU1 (IPI00847168); 5 h vs 2.5 h incubation time): 1.34 | rAVERAGE (CTRL/1 INC) (RSU1 (IPI00847168); [1]): 0.07 | Ki (RSU1 (IPI00847168); immobilized VI16742): 216 µM | rAVERAGE (2 INC/1 INC) (RSU1 (IPI00847168); second vs first incubation): 0.81 | r (3 MG/1 MG LYSATE) (CCNK (IPI00783214); 3 mg vs 1 mg lysate): 3.84 | r (5 h/2.5 h INC. TIME) (CCNK (IPI00783214); 5 h vs 2.5 h incubation time): 1.27 | rAVERAGE (CTRL/1 INC) (CCNK (IPI00783214); [1]): 0.12 | Ki (CCNK (IPI00783214); immobilized VI16742): 120 µM | rAVERAGE (2 INC/1 INC) (CCNK (IPI00783214); second vs first incubation): 0.70 | rAVERAGE (CTRL/1 INC) (CCNH (IPI00021305); [1]): 0.05 | Ki (CCNH (IPI00021305); immobilized VI16742): 96.9 µM | rAVERAGE (2 INC/1 INC) (CCNH (IPI00021305); second vs first incubation): 0.65

CC(C)n1c(=O)ccc2cnc(Nc3ccc(OCCN)cc3)nc21 [compound 16742]
Percent bound at 1.87 μM 16742 conc (CK1a; EXPERIMENT 1): 6.51% | Percent bound at 8.74 μM 16742 conc (CK1a; EXPERIMENT 1): 31.78% | Percent bound at 52 μM 16742 conc (CK1a; EXPERIMENT 1): 60.94% | Kd (CK1a; EXPERIMENT 1, read-out: Kd): 20.8 µM | Percent bound at 1.87 μM 16742 conc (CK1a; EXPERIMENT 2): 5.11% | Percent bound at 8.74 μM 16742 conc (CK1a; EXPERIMENT 2): 34.46% | Percent bound at 52 μM 16742 conc (CK1a; EXPERIMENT 2): 83.66% | Kd (CK1a; EXPERIMENT 2, read-out: Kd): 16.8 µM | Kd (CK1a; read-out: Kd Avg): 18.8 µM | Percent bound at 1.87 μM 16742 conc (EphB4; EXPERIMENT 1): 3.95% | Percent bound at 8.74 μM 16742 conc (EphB4; EXPERIMENT 1): 18.14% | Percent bound at 52 μM 16742 conc (EphB4; EXPERIMENT 1): 61.05% | Kd (EphB4; EXPERIMENT 1, read-out: Kd): 35.2 µM | Percent bound at 1.87 μM 16742 conc (EphB4; EXPERIMENT 2): 2.71% | Percent bound at 8.74 μM 16742 conc (EphB4; EXPERIMENT 2): 12.85% | Percent bound at 52 μM 16742 conc (EphB4; EXPERIMENT 2): 50.80% | Kd (EphB4; EXPERIMENT 2, read-out: Kd): 52.1 µM | Kd (EphB4; read-out: Kd Avg): 43.6 µM

COc1cc2ncnc(Nc3ccc(F)c(Cl)c3)c2cc1OCCCN1CCOCC1 [gefitinib]
rAVERAGE (10 nM/0 nM Gef.) (SNRPG): 0.65 | rAVERAGE (100 nM/0 nM Gef.) (SNRPG): 1.09 | rAVERAGE (1000 nM/0 nM Gef.) (SNRPG): 0.72 | rAVERAGE (10000 nM/0 nM Gef.) (SNRPG): 0.89
